Laboratory results published in the supplement of paper PMC10307832.

Assays:
Assay in all cases: relative viability (nuclei count vs DMSO), 5 days (fraction); higher = more cells survive
Bleomycin + Decitabine = compound: CC1=C(N=C(N=C1N)[C@H](CC(=O)N)NC[C@@H](C(=O)N)N)C(=O)N[C@@H]([C@H](C2=CN=CN2)OC3C(C(C(C(O3)CO)O)O)OC4C(C(C(C(O4)CO)O)OC(=O)N)O)C(=O)N[C@H](C)[C@H]([C@H](C)C(=O)N[C@@H]([C@@H](C)O)C(=O)NCCC5=NC(=CS5)C6=NC(=CS6)C(=O)NCCC[S+](C)C)O [Bleomycin] + Nc1ncn([C@H]2C[C@H](O)[C@@H](CO)O2)c(=O)n1 [Decitabine] (partner 2 µM); conditions: main component drawn
Procedure, shortened: (§1)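 Each reported value is a median over duplicate plates. It expresses relative viability: treated-well nuclei count divided by vehicle-well nuclei count. Lung cancer cell lines in 1536-well plates were dosed by pin tool a day after seeding, alone with one drug or with a fixed anchor-drug dose plus five library-drug doses (not always all listed) in √10 steps, and nuclei were counted after 5 days.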

Bleomycin + Pictilisib = compound: CC1=C(N=C(N=C1N)[C@H](CC(=O)N)NC[C@@H](C(=O)N)N)C(=O)N[C@@H]([C@H](C2=CN=CN2)OC3C(C(C(C(O3)CO)O)O)OC4C(C(C(C(O4)CO)O)OC(=O)N)O)C(=O)N[C@H](C)[C@H]([C@H](C)C(=O)N[C@@H]([C@@H](C)O)C(=O)NCCC5=NC(=CS5)C6=NC(=CS6)C(=O)NCCC[S+](C)C)O [Bleomycin] + CS(=O)(=O)N1CCN(Cc2cc3nc(-c4cccc5[nH]ncc45)nc(N4CCOCC4)c3s2)CC1 [Pictilisib] (partner 1 µM); conditions: main component drawn
Procedure, shortened: as §1

Etoposide + AZD7762 = compound: COc1cc([C@@H]2c3cc4c(cc3[C@@H](O[C@@H]3O[C@@H]5CO[C@@H](C)O[C@H]5[C@H](O)[C@H]3O)[C@H]3COC(=O)[C@H]23)OCO4)cc(OC)c1O [Etoposide] + NC(=O)Nc1cc(-c2cccc(F)c2)sc1C(=O)N[C@H]1CCCNC1 [AZD7762] (partner 0.2 µM)
Procedure, shortened: as §1

Etoposide + Trametinib = compound: COc1cc([C@@H]2c3cc4c(cc3[C@@H](O[C@@H]3O[C@@H]5CO[C@@H](C)O[C@H]5[C@H](O)[C@H]3O)[C@H]3COC(=O)[C@H]23)OCO4)cc(OC)c1O [Etoposide] + CC(=O)Nc1cccc(-n2c(=O)n(C3CC3)c(=O)c3c(Nc4ccc(I)cc4F)n(C)c(=O)c(C)c32)c1 [Trametinib] (partner 0.02 µM)
Procedure, shortened: as §1

Cell Line | relative viability (Bleomycin + Decitabine; first compound 0.01 µM) | relative viability (Bleomycin + Decitabine; first compound 0.03162 µM) | relative viability (Bleomycin + Decitabine; first compound 0.1 µM) | relative viability (Bleomycin + Decitabine; first compound 0.3162 µM) | relative viability (Bleomycin + Decitabine; first compound 1 µM) | relative viability (Bleomycin + Pictilisib; first compound 0.01 µM) | relative viability (Bleomycin + Pictilisib; first compound 0.03162 µM) | relative viability (Bleomycin + Pictilisib; first compound 0.1 µM) | relative viability (Bleomycin + Pictilisib; first compound 0.3162 µM) | relative viability (Bleomycin + Pictilisib; first compound 1 µM) | relative viability (Etoposide + AZD7762; first compound 0.01 µM) | relative viability (Etoposide + AZD7762; first compound 0.03162 µM) | relative viability (Etoposide + AZD7762; first compound 0.1 µM) | relative viability (Etoposide + AZD7762; first compound 0.3162 µM) | relative viability (Etoposide + AZD7762; first compound 1 µM) | relative viability (Etoposide + Trametinib; first compound 0.01 µM) | relative viability (Etoposide + Trametinib; first compound 0.03162 µM) | relative viability (Etoposide + Trametinib; first compound 0.1 µM) | relative viability (Etoposide + Trametinib; first compound 0.3162 µM) | relative viability (Etoposide + Trametinib; first compound 1 µM)
NCI-H1975 | 0.327 | 0.437 | 0.291 | 0.209 | 0.177 | 0.288 | 0.256 | 0.258 | 0.188 | 0.134 | 0.702 | 0.804 | 0.508 | 0.658 | 0.443 | 0.303 | 0.425 | 0.284 | 0.268 | 0.236
NCI-H1993 | 0.602 | 0.507 | 0.556 | 0.519 | 0.436 | 0.647 | 0.807 | 0.794 | 0.681 | 0.688 |  | 0.838 | 0.474 | 0.759 | 0.596 |  | 0.619 | 0.441 | 0.481 | 0.444
NCI-H2085 | 0.558 | 0.551 | 0.418 | 0.421 | 0.339 | 0.427 | 0.386 | 0.364 | 0.29 | 0.293 | 0.831 | 0.905 | 0.803 | 0.911 | 0.453 | 0.484 | 0.643 | 0.423 | 0.266 | 0.271
NCI-H2087 | 0.261 | 0.27 | 0.229 | 0.144 | 0.183 | 0.766 | 0.874 | 0.775 | 0.236 | 0.247 | 1.46 | 1.3 | 1.3 | 1.08 | 0.78 | 0.206 | 0.213 | 0.173 | 0.2 | 0.147
NCI-H2126 | 0.626 | 0.621 | 0.601 | 0.567 | 0.566 | 0.498 | 0.471 | 0.501 | 0.391 | 0.365 | 0.93 | 1.08 | 0.681 | 0.948 | 0.919 | 0.539 | 0.683 | 0.427 | 0.455 | 0.312
NCI-H2170 | 0.437 | 0.42 | 0.39 | 0.32 | 0.271 | 0.376 | 0.304 | 0.297 | 0.256 | 0.262 | 0.721 | 0.882 |  | 0.881 | 0.482 | 0.843 | 1.03 |  | 0.877 | 0.723
NCI-H2347 | 0.572 | 0.635 | 0.543 | 0.514 | 0.488 | 0.605 | 0.599 | 0.532 | 0.271 | 0.575 | 0.685 | 0.828 | 0.311 | 0.374 | 0.367 | 0.25 | 0.301 | 0.25 | 0.269 | 0.278
NCI-H2405 | 0.648 | 0.655 | 0.61 | 0.433 | 0.309 | 0.45 | 0.417 | 0.42 | 0.254 | 0.202 | 0.754 | 0.765 | 0.728 | 0.638 | 0.317 | 0.64 | 0.728 | 0.505 | 0.544 | 0.4
NCI-H3122 | 0.441 | 0.49 | 0.358 | 0.324 | 0.26 | 0.642 | 0.591 | 0.577 | 0.243 | 0.36 | 0.998 | 0.998 | 0.834 | 0.607 | 0.181 | 0.23 | 0.223 | 0.153 | 0.23 | 0.215
PC-3 [JPC-3] | 0.806 | 0.69 | 0.704 | 0.621 | 0.547 | 0.681 | 0.681 | 0.768 | 0.569 | 0.466 | 0.782 | 0.92 | 0.604 | 0.785 | 0.73 | 0.693 | 0.756 | 0.633 | 0.749 | 0.671
PC-14 | 0.153 | 0.158 | 0.0921 | 0.0512 | 0.0367 | 0.369 | 0.259 | 0.159 | 0.0359 | 0.0457 | 0.338 | 0.396 | 0.317 | 0.307 | 0.17 | 0.715 | 0.678 | 0.798 | 0.491 | 0.229
RERF-LC-KJ | 0.418 | 0.478 | 0.336 | 0.213 | 0.145 | 0.269 | 0.433 | 0.316 | 0.188 | 0.167 | 0.935 | 1.1 | 0.583 | 0.861 | 0.967 | 0.7 | 0.899 | 0.822 | 0.835 | 0.6
